# Test results as given in US6727237B2, “Inhibitors of bacterial NAD synthetase” (priority 1998, dated 2004).
# Target: T1, bacterial NAD synthetase enzyme (Bacillus subtilis, UniProt P08164)
# T1 sequence (P08164 2-272 limits assumed): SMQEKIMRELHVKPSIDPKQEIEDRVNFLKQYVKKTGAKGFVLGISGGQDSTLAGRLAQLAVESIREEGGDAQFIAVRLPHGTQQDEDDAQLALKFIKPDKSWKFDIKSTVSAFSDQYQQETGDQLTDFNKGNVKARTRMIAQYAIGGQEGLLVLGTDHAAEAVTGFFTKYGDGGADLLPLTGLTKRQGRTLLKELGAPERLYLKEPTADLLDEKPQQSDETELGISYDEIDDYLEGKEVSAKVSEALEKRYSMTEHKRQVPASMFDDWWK
# Experiment: biochemical
# Format: biochemical
# Conditions: not given
SMILES,IC50,inhibition at 200 µM,inhibition at 100 µM,inhibition at 250 µM
COC(=O)c1cc2cc(OCc3ccccc3)ccc2n1CCCCCCCOC(=O)c1ccc(C[N+](C)(C)C)cc1 [Compound 1097],63.7 µM,98%,–,–
C[N+](C)(C)c1cccc(C(=O)OCCCCCCCc2cc3cc(Oc4ccccc4)ccc3[nH]2)c1 [Compound 872],50 µM,–,98.3%,–
CC(=O)c1ccc2[nH]c(CCCCCCCOC(=O)c3cccc([N+](C)(C)C)c3)cc2c1 [Compound 878],80 µM,–,96.4%,–
CC(C)c1ccc2[nH]c(CCCCCCCCOC(=O)c3ccc([N+](C)(C)C)cc3)cc2c1 [Compound 891],80 µM,–,–,99.9%
C[N+](C)(C)c1ccc(CC(=O)OCCCCCCCCn2ccc3ccccc32)cc1 [Compound 981],60 µM,95.2%,–,–
CC(C)c1ccc2[nH]c(CCCCOC(=O)c3ccc([N+](C)(C)C)cc3)cc2c1 [Compound 889],75 µM,–,93.6%,–
COC(=O)c1cc2ccccc2n1CCCCCCCCCOC(=O)c1ccc[n+](C)c1 [Compound 974],35 µM,–,88.2%,–
c1ccc(Oc2ccc3[nH]c(CCCC[n+]4ccccc4)cc3c2)cc1 [Compound 349],75 µM,–,86.6%,–
C[N+](C)(C)c1cccc(C(=O)OCCCCCCCCc2cc3cc(C(=O)c4ccccc4)ccc3[nH]2)c1 [Compound 882],90 µM,–,94.5%,–
C[n+]1cccc(CC(=O)OCCCCCCCCc2cc3cc(C(=O)c4ccccc4)ccc3[nH]2)c1 [Compound 942],75 µM,–,97.8%,–
CC(=O)C=Cc1ccc(OCCCCCCCCOC(=O)Cc2ccc([N+](C)(C)C)cc2)cc1 [Compound 1081],67.5 µM,84%,–,–

# Same assay, conditions: NAD synthetase enzyme inhibition; read-out: IC50 of Compounds
row,SMILES,IC50
1,CCCCc1oc2ccccc2c1C(=O)c1ccc(OCCCCCCCCOC(=O)Cc2ccc([N+](C)(C)C)cc2)cc1 [Compound 1084],12.5 µM

# Same assay, conditions: compound at 0.05 mM
row,SMILES,% Inhibition
1,O=C(OCCCCCCCn1ccc2ccccc21)c1cccnc1 [Compound 944],2.06%

# Same assay, conditions: compound at 0.1 mM (Table 314)
row,SMILES,% Inhibition
1,c1ccc2[nH]c(CCCCCCCC[n+]3cccc4ccccc43)cc2c1 [Compound 395],20.85%
2,O=C(O)/C=C/c1cn(CCCC[n+]2cccc3ccccc32)c2ccccc12 [Compound 154],9.24%
3,c1ccc(-c2ccc3[nH]c(CCCC[n+]4ccccc4)cc3c2)cc1 [Compound 325],53.22%
4,c1ccc(C(c2ccccc2)(c2ccccc2)c2ccc3[nH]c(CCC[n+]4ccccc4)cc3c2)cc1 [Compound 336],18.02%
5,FC(F)(F)c1ccc2cc(CCCCC[n+]3ccccc3)[nH]c2c1 [Compound 290],12.89%
6,O=[N+]([O-])c1ccc2[nH]c(CCC[n+]3ccc4ccccc4c3)cc2c1 [Compound 546],4.72%
7,C[N+](C)(C)c1cccc(C(=O)OCCCCCCCc2cc3cc(C(=O)c4ccccc4)ccc3[nH]2)c1 [Compound 881],90.89%

# Same assay, conditions: compound at 0.2 mM (Table 312A)
row,SMILES,% Inhibition
1,c1ccc(-c2ccc3[nH]c(CCCCCC[n+]4cccc5ccccc54)cc3c2)cc1 [Compound 435],17.24%
2,O=C(O)c1ccc2[nH]c(CCCCC[n+]3cccc4ccccc43)cc2c1 [Compound 494],17.44%
3,C[n+]1cccc(C(=O)OCCCCCCCn2ccc3ccccc32)c1 [Compound 968],88.52%
4,FC(F)(F)c1ccc2cc(CCCCCCC[n+]3ccccc3)[nH]c2c1 [Compound 292],44.36%
5,COc1ccc2[nH]c(CCC[n+]3ccc4ccccc4c3)cc2c1 [Compound 588],2.49%
6,CC(C)c1ccc2[nH]c(CCC[n+]3ccc4ccccc4c3)cc2c1 [Compound 534],26.99%
7,c1cc[n+](CCCCCCCCc2cc3ccccc3[nH]2)cc1 [Compound 287],16.01%
8,O=[N+]([O-])c1ccc2[nH]c(CCCCCCC[n+]3ccccc3)cc2c1 [Compound 334],41.67%
9,O=C(O)c1ccc2[nH]c(CCCCCCC[n+]3cccc4ccccc43)cc2c1 [Compound 496],36.97%
10,c1ccc(-c2ccc3[nH]c(CCCCCCCC[n+]4ccccc4)cc3c2)cc1 [Compound 329],30.77%
11,C[N+](C)(C)c1ccc(CC(=O)OCCCCCCCn2ccc3ccccc32)cc1 [Compound 980],74.86%
12,CC(C)c1ccc2[nH]c(CCCCCCCC[n+]3ccccc3)cc2c1 [Compound 323],28.08%
13,Fc1cc(F)c2[nH]c(CCCCCCCC[n+]3ccccc3)cc2c1 [Compound 305],54.83%
14,CC(=O)c1ccc2[nH]c(CCCCCCC[n+]3cccc4ccccc43)cc2c1 [Compound 478],9.76%
15,O=[N+]([O-])c1cc([N+](=O)[O-])c2[nH]c(CCCCCCCC[n+]3ccccc3)cc2c1 [Compound 311],29.67%
16,Fc1ccc2[nH]c(CCCCCC[n+]3ccc4ccccc4c3)cc2c1 [Compound 561],24.70%
17,C[n+]1cccc(C(=O)OCCCCCCCCn2ccc3cc([N+](=O)[O-])ccc32)c1 [Compound 867],70.33%
18,COC(=O)c1ccc2[nH]c(CCCCCCC[n+]3cccc4ccccc43)cc2c1 [Compound 490],2.96%
19,c1ccc(Oc2ccc3[nH]c(CCCCCCC[n+]4cccc5ccccc54)cc3c2)cc1 [Compound 460],4.17%
20,Cc1ccc2[nH]c(CCCCCCCC[n+]3ccccc3)cc2c1 [Compound 299],49.13%
21,O=C(OCCCCCCCc1cc2cc(Oc3ccccc3)ccc2[nH]1)c1cccnc1 [Compound 685],7.81%
22,CCCCc1ccc2[nH]c(CCCCCCCC[n+]3ccc4ccccc4c3)cc2c1 [Compound 533],24.68%
23,COc1ccc2c(ccn2CCCCCOC(=O)c2ccc[n+](C)c2)c1 [Compound 761],6.88%
24,O=[N+]([O-])c1cc([N+](=O)[O-])c2[nH]c(CCCCCC[n+]3ccc4ccccc4c3)cc2c1 [Compound 525],8.39%
25,c1ccc(Oc2ccc3[nH]c(CCC[n+]4ccccc4)cc3c2)cc1 [Compound 348],44.42%
26,Fc1cc(F)c2[nH]c(CCCC[n+]3ccc4ccccc4c3)cc2c1 [Compound 517],34.72%
27,O=C(O)c1ccc2[nH]c(CCCCCCCC[n+]3cccc4ccccc43)cc2c1 [Compound 497],29.10%
28,O=[N+]([O-])c1cc([N+](=O)[O-])c2[nH]c(CCCCCCCC[n+]3ccc4ccccc4c3)cc2c1 [Compound 527],73.78%
29,Fc1ccc2[nH]c(CCCCCCC[n+]3cccc4ccccc43)cc2c1 [Compound 454],7.95%
30,O=[N+]([O-])c1ccc2[nH]c(CCCCCC[n+]3cccc4ccccc43)cc2c1 [Compound 441],11.80%

# Same assay, conditions: compound at 0.2 mM (Table 312B)
row,SMILES,% Inhibition
1,C[n+]1cccc(C(=O)OCCCCCCCCOc2ccccc2C(=O)Nc2ccccc2)c1 [compound 3054],86%
2,CN(C)c1ccc(CC(=O)OCCCCCCCCOc2cccc(N3CCOCC3)c2)cc1 [Compound 1045],14%
3,C[n+]1cccc(C(=O)OCCCCCCCCOc2ccc(N3C(=O)c4ccccc4C3=O)cc2)c1 [compound 1071],55%
4,CC(=O)C=Cc1ccc(OCCCCCCCCOC(=O)c2ccc[n+](C)c2)cc1 [compound 1061],61%
5,COC(=O)c1cc2cc(OCc3ccccc3)ccc2n1CCCCCCCOC(=O)Cc1ccc([N+](C)(C)C)cc1 [compound 1105],167%
6,CN(C)c1ccc(CC(=O)OCCCCCCCCOc2cccc([N+](=O)[O-])c2)cc1 [Compound 1036],6%
7,C[N+](C)(C)c1ccc(CC(=O)OCCCCCCCCOc2ccc([N+](=O)[O-])cc2)cc1 [Compound 1073],78%
8,C[n+]1cccc(C(=O)OCCCCCCCCOc2cccc(OC(=O)c3ccccc3)c2)c1 [compound 1059],85%
9,O=C(OCCCCCCCCOc1ccc(N2C(=O)c3ccccc3C2=O)cc1)c1cccnc1 [Compound 1017],23%
10,CC(=O)c1cccc(OCCCCCCCCOC(=O)c2cccnc2)c1 [Compound 1015],15%
11,C[n+]1cccc(C(=O)OCCCCCCCCOc2ccc([N+](=O)[O-])cc2)c1 [compound 1053],72%
12,CCCCc1oc2ccccc2c1C(=O)c1ccc(OCCCCCCCCOC(=O)Cc2ccc([N+](C)(C)C)cc2)cc1 [Compound 1084],106%
13,O=C(OCCCCCCCCOc1ccc([N+](=O)[O-])cc1)c1cccnc1 [Compound 995],27%
14,COc1cccc(OCCCCCCCCOC(=O)c2ccc[n+](C)c2)c1 [compound 1057],59%

# Same assay, conditions: compound at 0.25 mM
row,SMILES,% Inhibition
1,CC(C)c1ccc2[nH]c(CCCCOC(=O)Cc3ccc[n+](C)c3)cc2c1 [Compound 934],98.5%
2,C[n+]1ccc(C(=O)OCCCCc2cc3cc(C(=O)c4ccccc4)ccc3[nH]2)cc1 [Compound 910],88.5%
3,CC(=O)c1ccc2[nH]c(CCCCCCCOC(=O)c3ccc([N+](C)(C)C)cc3)cc2c1 [Compound 893],13.8%
4,CC(=O)c1ccc2[nH]c(CCCCOC(=O)c3cccc([N+](C)(C)C)c3)cc2c1 [Compound 877],98.3%
5,C[n+]1ccc(C(=O)OCCCCCCCCc2cc3cc(C(=O)c4ccccc4)ccc3[nH]2)cc1 [Compound 912],27.6%
6,C[n+]1ccc(C(=O)OCCCCc2cc3cc(Oc4ccccc4)ccc3[nH]2)cc1 [Compound 901],32.8%
7,C[N+](C)(C)c1ccc(C(=O)OCCCCCCCCc2cc3cc(C(=O)c4ccccc4)ccc3[nH]2)cc1 [Compound 897],50.9%
8,C[n+]1ccc(C(=O)OCCCCc2cc3ccc(C(F)(F)F)cc3[nH]2)cc1 [Compound 898],51.8%
